The subject of one experiment is human rotavirus DS-1. The experiment in a line: Infectivity assay for rotavirus, MA104 cells, strain DS-1.
A further experiment has as its system human rotavirus Wa. In words: Infectivity assay for rotavirus, MA104 cells, strain Wa.
The subject of the next experiment is human rotavirus. In words: Target identification by siRNA sensitization (TISS), human rotavirus, Caco2 cells. Particulars: oxysterol at its EC50.
The subject of experiment [1] is rotavirus. The experiment in a line: Assay on adhesion of the rotavirus to the cell surface. In kind it is cell-based. Particulars: MA104 cells, 5.6 μM for 20 hours, MOI 3. Here is the method:
For the assays on bonding of the rotavirus to the surface of MA104 cells, monolayers of confluent cells in plates with 24 wells were treated at 37° C. with 25- or 27-hydroxycholesterol at 1.9 μM and 5.6 μM for 20 hours. The cells were then washed and cooled on ice for 20 minutes. The infectivity of the virus was activated with 5 μg of porcine trypsin (Sigma)/ml for 30 minutes at 37° C. The activated virus, which had been cooled to 4° C., was left to adhere to the cells in ice for 1 hour at an MOI of 3. Lastly, the cells were washed with cold MEM; cold MEM was then added to the cells, which underwent two freezing-thawing cycles, in order to allow detachment of the viral particles bonded to the cell surface; the cell lysate was incubated at 37° C. for 30 minutes in the presence of […] of porcine trypsin/ml, subsequently clarified by means of centrifugation (1200 rpm, 10 minutes).
The titre of the virus population bound to the cells was determined by means of indirect immunocytochemistry performed on monolayers of MA104 cells infected with serial dilutions of the virus collected. The results are illustrated by FIG. 9; in the graph, the titre of the viral population bound to the surface of the treated cells is expressed in percentage terms with respect to the non-treated control and the error bars represent the standard deviation. […]

In the next experiment the test system is LXR. To be noted: cited from earlier work.
For the next experiment, the system named is human rhinovirus 1A. The experiment in a line: Rhinovirus yield reduction assay. To be noted: HeLa cells, 5.6 μM after infection, collected 5 days after the infection.
For experiment [2], the system named is rotavirus. The experiment in a line: Rotavirus cell entry kinetics. In kind it is cell-based. Particulars: MA104 cells. The procedure:
To measure the entry speed of the rotavirus into the cells, confluent monolayers of MA104 cells (cultivated in plates with 96 wells) were treated with 25OHC, 27OHC or 7κC at 1.9 μM at 37° C.; after 20 hours, the cells were washed extensively with cold medium and left to cool on ice. […] The non-bound viruses were then eliminated by washing, medium was added at 37° C., and the plates were incubated at 37° C. in a humidified atmosphere. At fixed times (i.e. 0, 15, 30, 45, 60, 75 and 90 minutes after the virus-cell adhesion), the medium was extracted from the wells and the viral particles still present on the surface of the cells were eliminated by means of two rapid washing operations with EGTA 3 mM in PBS, followed by incubation in warm medium. After reaching the last time point (90 minutes from the virus-cell adhesion), the plates with 96 wells were placed in an incubator (37° C., 5% CO2), and the infection was left to proceed for a further 16 hours. The cells were then fixed and coloured as described above. The quantity of viral particles that entered the cells at each time point was compared with the quantity of virus that entered when no washing with EGTA was performed (100% entry). The ANOVA, followed by the Bonferroni test, was used to evaluate the statistical significance of the differences between the treated and non-treated samples. The significance was fixed at the level of 95%.
As a control experiment, the same treatment and infection protocol was performed on MA104 cells, cultivated in a plate with 6 wells. In this experiment, after reaching the last time point of the entry measurement (90 minutes), the cells were lysed, the proteins extracted were denatured by boiling for 5 minutes, then separated by electrophoresis on sodium dodecylsulfate gel with 12% polyacrylamide (SDS-12%PAGE) and transferred to a polyvinylidene difluoride (PVDF) membrane. The protein of the intermediate capsid VP6 was detected using the murine monoclonal antibody 2B4 (mab0036-P, CovalAb) at a dilution 1:750, followed by secondary antibody IgG-HRP (Santa Cruz Biotechnology Inc.). The actin was detected using the anti-actin murine monoclonal antibody MAB1501R (Millipore), followed by antibody IgG-HRP (Santa Cruz Biotechnology Inc.). The density of the bands was compared using the ImageJ software, and the intensity of the actin bands was used to normalize the values. The ANOVA, followed by the Bonferroni test, was used to evaluate the statistical significance of the differences between the treated and the non-treated samples. The significance was fixed at the level of 95%. The results are reported in FIG. 11 and are expressed as a percentage, comparing treated cells with cells incubated with culture medium.

Molecules are shown by their SMILES.

Protocol for human rhinovirus 1A: Each well was inoculated with 200 μl of a stock of human rhinovirus 1A containing approximately 30 PFU per well and incubated for 1 hour. […] The infected cells and the supernatants were collected 5 days after the infection (when a complete CPE was visible), and titred by means of the standard plaque method, as described above.
Protocol for human rotavirus DS-1: (§1) The strains of human rotavirus Wa (ATCC® VR-2018), WI61 (ATCC® VR-2551), HRV 408 (ATCC® VR-2273), HRV 248 (ATCC® VR-2274) and DS-1 (ATCC® VR-2550) were acquired from the American Tissue Culture Collection (ATCC); the viruses were activated with 5 μg/ml porcine pancreatic trypsin of type IX (Sigma, St. Louis, Mo.) for 30 minutes at 37° C. and propagated in MA104 cells using MEM containing 0.5 μg of trypsin per ml as described previously (27).
(§2) The antiviral effectiveness of the oxysterols of the invention was determined by means of infectivity inhibition assay. The assays were performed with confluent monolayers of MA104 cells seeded in plates with 96 wells, as described previously (28). […] The control samples were prepared by treating the cells with culture medium with the addition of equal volumes of ethanol. The cells were then washed with medium, and the rotavirus infection was performed at a multiplicity of infection (MOI) of 0.02. After the infection, the cells were washed with medium and incubated at 37° C. in an incubator humidified at 5% (vol/vol) CO2-95% (vol/vol) of air. After 16 hours, the infected cells were fixed with a cold acetone-methanol mixture (50:50), and the virus titres were determined by means of indirect immunocytochemistry. The inhibition of the virus infectivity was expressed as a percentage comparing the mean number of infective events in the treated and non-treated samples±the standard deviations. Where possible, the values of the oxysterol concentrations able to determine 50% or 90% of the antiviral effect (EC50 and EC90 respectively) were calculated by means of regression analysis using the dose-response curves generated by the experimental data, with the use of PRISM 5.00 (GraphPad Software, San Diego, Calif., USA).
Protocol for human rotavirus Wa: as §1, §2

In the experiment on human rotavirus DS-1, `C[C@H](CCCC(C)(C)O)[C@H]1CC[C@H]2[C@@H]3CC=C4C[C@@H](O)CC[C@]4(C)[C@H]3CC[C@]12C` [25OHC, 25-hydroxycholesterol] registered an EC50 of 270 nM and an EC90 of 5770 nM. In the experiment with human rotavirus Wa, this compound registered a 50% effective concentration (EC50) of 160 nM and an EC90 of 1370 nM. Further, the “antiviral activity in cells with OSBP silenced” value in the experiment with human rotavirus (OSBP siRNA 20 nM) was “higher”. For the same compound, in the experiment with human rotavirus (VAPA siRNA 20 nM), the “antiviral activity in cells with VAP-A silenced” value is “higher”. Besides, the “titre of the viral population bound to the cell surface” value in the experiment on rotavirus [1] is “reduce in a statistically significant manner (p<0.05) the ability of the virus to adhere to the cell surface”. In addition, the LXR ligand activity result in the experiment with LXR is “optimal ligands of LXR”. For the same compound, in the experiment with human rhinovirus 1A, the “production of viral progenies” value is listed as “totally inhibit the production of viral progenies”. In addition, the “entry of the rotavirus into the cells (infective events)” value in the experiment with rotavirus [2] (1.9 μM for 20 hours, MOI 0.02) was “totally inhibit the ability of the rotavirus to penetrate into the host cells”. Also, the “viral antigen VP6 within the cells (Western blot)” value with rotavirus [2] (90 minutes after virus-cell adhesion) is reported as “significantly (p<0.05) lower quantity than the non-treated control”.
